Test results taken from patent US5981586A, “Methods for treating proliferative and inflammatory skin diseases” (priority 1998, dated 1999).
pIC50: −log10 of the molar value. “Also recorded” adds a separate entry of the source. Like-named read-outs stand apart in the source and are kept apart here.

Assays:
PPARγ [1] = details: cited from earlier work
human keratinocytes [2] = experiment: Proliferation of human keratinocytes by PMS/MTS (CellTiter 96 AQueous) assay; type: cell-based
Text: Inhibition of proliferating human keratinocytes in culture have been utilized as a system for screening and identifying potential therapeutic agents such as vitamin D derivatives (Kitano et at., 1991) and retinoids (West et at., 1992), for the treatment of inflammatory, proliferative skin diseases (e.g., psoriasis vulgaris, acne vulgaris, hidradenitis suppurativa).
Human keratinocytes were obtained from Clonetics (San Diego, California) and subcultured into a proprietary (Clonetics) medium optimized for cell growth and maintenance. Proliferation of keratinocytes was determined using MTS, 3-(4,5-dimethylthiazol-2-yl)-5-(3-carboxymethoxyphenyl)-2-(4-sulfophen 1)-2H-tetrazolium (PMS/MTS) as described in the CellTiter 96 AQueous Non-Radioactive Cell Proliferation Assay (Promega Inc.). Only viable cells reduce MTS to the soluble formazan, and viable cell numbers correlate with optical density (Cory et at., 1991).
Cells were seeded at 2 to 4×10^4 cells/ml of growth medium in 24 well microtiter plates. Twenty-four hours post-plating cells were treated with vehicle alone (0.1% DMSO) or various concentrations of 15-deoxy-PG J2 was added to each well (quadruplicate samples per concentration) for an additional 4 days. At each time point 100 ul of the PMS/MTS assay mix is added and absorbance at 490 nm was recorded four hours later with a microplate spectrophotometer (BioTek Instrument Co).

PPARγ [3] = details: cited from earlier work; remark: listed apart in the source
human keratinocytes [4] = experiment: Proliferation of adult human keratinocytes in culture (neutral red dye assay, 4 days); type: cell-based
Description: The use of proliferating human keratinocytes in culture as a test system for determining the utility of a compound for treating hyperproliferative and inflammatory disorders of the skin is well documented (Kitanot et at., Euro. J Clin. Investig. 21:53-58 (1991) and West, et at., J. Investigative Derm. 99(1):95-100 (1992).)
Cell number was assessed at time zero (before treatment) and at the end of the treatment period by the neutral red dye assay. See Kitano, et at., Euro. J. Clin. Investig. 21:53-58 (1991) and West, et at., J. Investigative Derm. 99(1):95-100 (1992). Each condition was performed in 12 replicates, on keratinocytes from three subjects and the results were combined from the three subjects. […] The coordinate plots the cell growth of the keratinocytes as the percentage of controls.

CCCCCC=CC=C1C(=O)C=CC1CC=CCCCC(=O)O (stereo not shown) [15-deoxy-PG J2, 15-deoxy-A-12,14-prostaglandin J2]
activation of PPARγ (in words) (PPARγ [1]): activate PPARγ to varying degrees
inhibition at 2 µM (human keratinocytes [2]; Homo sapiens, Keratinocyte, 96 h, 2 uM, 4 days): 22%
inhibition at 4 µM (human keratinocytes [2]; Homo sapiens, Keratinocyte, 96 h, 4 uM, 4 days): 51%
inhibition at 8 µM (human keratinocytes [2]; Homo sapiens, Keratinocyte, 96 h, 8 uM, 4 days): 76%
inhibition at 20 µM (human keratinocytes [2]; Homo sapiens, Keratinocyte, 96 h, 20 uM, 4 days): 100%
pIC50 (human keratinocytes [2]; Keratinocyte, 96 h, human keratinocytes, 4 days treatment, read-out: concentration for half-maximal inhibition of growth (IC50)): ~5.40
% inhibition of proliferation of human keratinocytes (human keratinocytes [2]; concentration not printed in the line (first line of Table 1), 4 days): 5%
inhibition of proliferation of human keratinocytes (in words) (human keratinocytes [2]; cultured human keratinocytes, 4 days): inhibits the proliferation of human keratinocytes in culture; also recorded: dose-dependent inhibition of proliferation

CC(C)(Oc1ccc(CCNC(=O)c2ccc(Cl)cc2)cc1)C(=O)O [bezofibrate]
activation of PPARγ (in words) (PPARγ [3]): known to activate PPARγ

CC(C)(Oc1ccc(C2CC2(Cl)Cl)cc1)C(=O)O (stereo not shown) [ciprofibrate]
activation of PPARγ (in words) (PPARγ [3]): known to activate PPARγ

CCOC(=O)C(C)(C)Oc1ccc(Cl)cc1 [clofibrate]
activation of PPARγ (in words) (PPARγ [3]): known to activate PPARγ

Cc1c(C)c2c(c(C)c1O)CCC(C)(COc1ccc(CC3SC(=O)NC3=O)cc1)O2 (stereo not shown) [troglitazone]
inhibition of keratinocyte proliferation (in words) (human keratinocytes [4]; 0.1, 1.0 and 10 μM, 4 days, compared with vehicle 0.1% DMSO): dose-dependent inhibition of keratinocyte proliferation; also recorded: dose-dependent and saturable; also recorded: dose response inhibition of cell growth
pIC50 (human keratinocytes [4]; Homo sapiens, Keratinocyte, 96 h, read-out: IC50, antiproliferative effect in human keratinocytes): 5.68
